Values of other authors, collected in PubChem BioAssay AID1259409 (Chemical Carcinogenesis Research Information System (CCRIS), 2018).

Tested on: rodent chemically induced tumor inhibition, incidence and multiplicity
Assay: CCRIS tumor inhibitor studies

C=CCSCC=C
tumour outcome (control, treated, inhibition, significance) (Carcinogen: 4-(METHYLNITROSAMINO)-1-(3-PYRIDYL)-1-BUTANONE, 64091-91-4, Dose [Inhibitor]: 0, 200 MG/KG BW IN CORN OIL FOR 3 D PRIOR TO CARCINOGEN TREATMENT (STUDY DURATION: 16 WK), Route [Inhibitor]: ORAL, Species: MOUSE, Strain/Sex: STRAIN-A/FEMALE, Target Tissue: Type of Lesion: LUNG: TUMOR, Dose [Carcinogen]: 100 MG/KG BW ONCE, Promoter: NONE USED): 100%, 38%, 62%, not calculated
tumour outcome (control, treated, inhibition, significance) (Carcinogen: 4-(METHYLNITROSAMINO)-1-(3-PYRIDYL)-1-BUTANONE, 64091-91-4, Dose [Inhibitor]: 0, 200 MG/KG/BW IN CORN OIL 1/D FOR 3 DAY PRIOR TO CARCINOGEN DOSE (STUDY DURATION: 16 WK), Route [Inhibitor]: ORAL, Species: MOUSE, Strain/Sex: STRAIN-A/FEMALE, Target Tissue: Type of Lesion: LUNG: TUMOR, Dose [Carcinogen]: 2 MG ONCE ADMINISTERED 2 HR POST LAST AGENT DOSE, Promoter: NONE USED): 100%, 38%, 62%, p<0.05
tumour outcome (control, treated, inhibition, significance) (Carcinogen: 7,12-DIMETHYLBENZ[A]ANTHRACENE, 57-97-6, Dose [Inhibitor]: 0, 1.8 MMOL/KG BW IN CORN OIL 96, 48 AND 24 HR PRIOR TO CARCINOGEN TREATMENT (STUDY DURATION: 25 WK), Route [Inhibitor]: GAVAGE, Species: RAT, Strain/Sex: SPRAGUE-DAWLEY/FEMALE, Target Tissue: Type of Lesion: MAMMARY GLAND: ADENOCARCINOMA, Dose [Carcinogen]: 10 MG ONCE, Promoter: NONE USED): 92%, 56%, 39%, p<0.05
tumour outcome (control, treated, inhibition, significance) (Carcinogen: ARISTOLOCHIC ACID, 313-67-7, Dose [Inhibitor]: 0, 150 MG/KG BW ADMINISTERED 4 HR PRIOR TO EACH CARCINOGEN DOSE 2/WK FOR 12 WK (STUDY DURATION: 46 WK), Route [Inhibitor]: GAVAGE, Species: RAT, Strain/Sex: BD-6/MALE, Target Tissue: Type of Lesion: FORESTOMACH: CARCINOMA OR SARCOMA, Dose [Carcinogen]: 10 MG/KG BW 2/WK FOR 12 WK, Promoter: NONE USED): 9/20 (45%), 2/20 (10%), 78%, p<0.01
tumour outcome (control, treated, inhibition, significance) (Carcinogen: ARISTOLOCHIC ACID, 313-67-7, Dose [Inhibitor]: 0, 150 MG/KG BW ADMINISTERED 24 AND 4 HR PRIOR TO EACH CARCINOGEN DOSE FOR 12 WK (STUDY DURATION: 46 WK), Route [Inhibitor]: GAVAGE, Species: RAT, Strain/Sex: BD-6/MALE, Target Tissue: Type of Lesion: FORESTOMACH: CARCINOMA OR SARCOMA, Dose [Carcinogen]: 10 MG/KG BW 2/WK FOR 12 WK, Promoter: NONE USED): 11/25 (44%), 0/20 (0%), 100%, p<0.001
tumour outcome (control, treated, inhibition, significance) (Carcinogen: BENZO[A]PYRENE [50-32-8], Dose [Inhibitor]: 0, 200 MG/KG BW IN TRIOCTANOIN 1 D AND 2 HR PRIOR TO CARCINOGEN DOSE (STUDY DURATION: 21 WK), Route [Inhibitor]: GAVAGE, Species: MOUSE, Strain/Sex: CD-1/FEMALE, Target Tissue: Type of Lesion: SKIN: PAPILLOMA, Dose [Carcinogen]: 0.3 UMOL IN 0.2 ML ACETONE ONCE, Promoter: 12-O-TETRADECANOYLPHORBOL-13-ACETATE [16561-29-8]): 92%, 73%, 21%, not calculated
tumour outcome (control, treated, inhibition, significance) (Carcinogen: BENZO[A]PYRENE [50-32-8], Dose [Inhibitor]: 200 MG/KG IN 10 µL TRIOCTANOIN ONCE 1 D AND 2 HR PRIOR TO CARCINOGEN DOSE (STUDY DURATION: 21 WK), Route [Inhibitor]: GAVAGE, Species: MOUSE, Strain/Sex: CD-1/FEMALE, Target Tissue: Type of Lesion: SKIN: PAPILLOMA, Dose [Carcinogen]: 0.3 UMOL IN 0.2 ML ACETONE ONCE (STUDY DURATION: 21 WK), Promoter: 12-O-TETRADECANOYLPHORBOL-13-ACETATE [16561-29-8]): 92%, 74%, 20%, not calculated
tumour outcome (control, treated, inhibition, significance) (Carcinogen: DIETHYLNITROSAMINE, 55-18-5, Dose [Inhibitor]: 0, 150 MG/KG BW BY INTRAPERITONEAL INJECTION ON DAYS 13, 14 AND 15 OF AGE THEN 1 G/KG DIET FROM 21 TO 161 DAYS OF AGE (S, Route [Inhibitor]: INTRAPERITONEAL, ORAL, Species: MOUSE, Strain/Sex: C3H/MALE, Target Tissue: Type of Lesion: LIVER: ADENOMA, Dose [Carcinogen]: 4 MG/KG IN TRICAPRYLIN ONCE ON DAY 15 OF AGE, Promoter: NONE USED): 100%, 97%, 3%, not significant
tumour outcome (control, treated, inhibition, significance) (Carcinogen: DIETHYLNITROSAMINE, 55-18-5, N-METHYL-N-NITROSOUREA, 684-93-5, N,N'-DIMETHYLHYDRAZINE, 540-73-8, N-BUTYL-N-(4-HYDR, Carcinogen: DIETHYLNITROSAMINE, 55-18-5, N-METHYL-N-NITROSOUREA, 684-93-5, N,N'-DIMETHYLHYDRAZINE, 540-73-8, N-BUTYL-N-(4-HYDR, Dose [Inhibitor]: 0, 200 MG/KG BW IN CORN OIL 3/WK FOR 6 WK BEGINNING POST CARCINOGEN TREATMENT (STUDY DURATION: 28 WK), Route [Inhibitor]: GAVAGE, Species: RAT, Strain/Sex: F344/MALE, Target Tissue: Type of Lesion: KIDNEY: RENAL CELL ADENOMA, Dose [Carcinogen]: 100 MG/KG BW DEN ONCE, 20 MG/KG BW MNU ONCE ON D 2, 5, 8 AND 11, 40 MG/KG BW DMH ON D 14, 17, 20 AND 23, 0.05% BHBN I, Dose [Carcinogen]: 100 MG/KG BW DEN ONCE, 20 MG/KG BW MNU ONCE ON D 2, 5, 8 AND 11, 40 MG/KG BW DMH ON D 14, 17, 20 AND 23, 0.05% BHBN I, Promoter: NONE USED): 4/20 (20%), 4/19 (21%), -5%, not significant
tumour outcome (control, treated, inhibition, significance) (Carcinogen: DIETHYLNITROSAMINE, 55-18-5, N-METHYL-N-NITROSOUREA, 684-93-5, N,N'-DIMETHYLHYDRAZINE, 540-73-8, N-BUTYL-N-(4-HYDR, Carcinogen: DIETHYLNITROSAMINE, 55-18-5, N-METHYL-N-NITROSOUREA, 684-93-5, N,N'-DIMETHYLHYDRAZINE, 540-73-8, N-BUTYL-N-(4-HYDR, Dose [Inhibitor]: 0, 200 MG/KG BW IN CORN OIL 3/WK FOR 6 WK BEGINNING POST CARCINOGEN TREATMENT (STUDY DURATION: 28 WK), Route [Inhibitor]: GAVAGE, Species: RAT, Strain/Sex: F344/MALE, Target Tissue: Type of Lesion: LARGE INTESTINE: ADENOMA, Dose [Carcinogen]: 100 MG/KG BW DEN ONCE, 20 MG/KG BW MNU ONCE ON D 2, 5, 8 AND 11, 40 MG/KG BW DMH ON D 14, 17, 20 AND 23, 0.05% BHBN I, Dose [Carcinogen]: 100 MG/KG BW DEN ONCE, 20 MG/KG BW MNU ONCE ON D 2, 5, 8 AND 11, 40 MG/KG BW DMH ON D 14, 17, 20 AND 23, 0.05% BHBN I, Promoter: NONE USED): 6/20 (30%), 1/19 (5%), 83%, not calculated
tumour outcome (control, treated, inhibition, significance) (Carcinogen: DIETHYLNITROSAMINE, 55-18-5, N-METHYL-N-NITROSOUREA, 684-93-5, N,N'-DIMETHYLHYDRAZINE, 540-73-8, N-BUTYL-N-(4-HYDR, Carcinogen: DIETHYLNITROSAMINE, 55-18-5, N-METHYL-N-NITROSOUREA, 684-93-5, N,N'-DIMETHYLHYDRAZINE, 540-73-8, N-BUTYL-N-(4-HYDR, Dose [Inhibitor]: 0, 200 MG/KG BW IN CORN OIL 3/WK FOR 6 WK BEGINNING POST CARCINOGEN TREATMENT (STUDY DURATION: 28 WK), Route [Inhibitor]: GAVAGE, Species: RAT, Strain/Sex: F344/MALE, Target Tissue: Type of Lesion: LARGE INTESTINE: CARCINOMA, Dose [Carcinogen]: 100 MG/KG BW DEN ONCE, 20 MG/KG BW MNU ONCE ON D 2, 5, 8 AND 11, 40 MG/KG BW DMH ON D 14, 17, 20 AND 23, 0.05% BHBN I, Dose [Carcinogen]: 100 MG/KG BW DEN ONCE, 20 MG/KG BW MNU ONCE ON D 2, 5, 8 AND 11, 40 MG/KG BW DMH ON D 14, 17, 20 AND 23, 0.05% BHBN I, Promoter: NONE USED): 8/20 (40%), 7/19 (37%), 8%, not significant
tumour outcome (control, treated, inhibition, significance) (Carcinogen: DIETHYLNITROSAMINE, 55-18-5, N-METHYL-N-NITROSOUREA, 684-93-5, N,N-DIBUTYLNITROSAMINE, 924-16-3, Carcinogen: DIETHYLNITROSAMINE, 55-18-5, N-METHYL-N-NITROSOUREA, 684-93-5, N,N-DIBUTYLNITROSAMINE, 924-16-3, Dose [Inhibitor]: 0, 0.5% IN DIET BEGINNING POST CARCINOGEN TREATMENT AND CONTINUING TO WK 40 (STUDY DURATION: 40 WK), Route [Inhibitor]: ORAL, Species: RAT, Strain/Sex: F344/MALE, Target Tissue: Type of Lesion: LUNG: ADENOMA, Dose [Carcinogen]: 100 MG/KG DIETHYLNITROSAMINE ONCE FOLLOWED BY 20 MG/KG N-METHYL-N-NITROSOUREA ON D 2, 5, 8 AND 11 THEN 0.05% N-N-DIBUTYL, Promoter: NONE USED): 9/16 (56%), 2/18 (11%), 80%, p<0.01
